Test results taken from US11826467B2, “W/O/W microemulsions for ocular administration” (University of Tennessee Research Foundation, priority 2017, dated 2023).

How the values were obtained:
IOP [1] = test: Efficacy of other gabapentinoid drugs (IOP, viscous eye drops); assay type: in vivo; conditions: 0.9% drug in 2% HPMC viscous eye drops, C57Bl/6 J mice
From the text: To determine if other members of the gabapentinoid drug family are also efficacious in reducing IOP, we compared the efficacy of 0.9% pregabalin, 0.9% 2-phenylglycine and 0.9% gabapentin in 2% HPMC viscous eye drops in C57Bl/6 J mice.
2-phenylglycine (FIG. 28) and gabapentin (FIG. 29) were not as efficacious as pregabalin although they both had maximum IOP reductions of −8% and areas under the curve of −14% hr.

IOP [2] = test: IOP lowering by pregabalin HPMC eye drops in mice (dose response); assay type: in vivo, B6 mice
From the text: 0.9% is the minimum concentration that gives maximum effect (n=5).
(§1) It is also modestly present in the CM. Based upon these collective data, it appears that CACNA2D1 regulates IOP (FIG. 3). Pregabalin, or other gabapentinoid drugs, binds to the CACNA2D1 subunit of the calcium channel. The binding of the drug mitigates the flux of calcium through the α1 pore of the calcium channel, reducing the level of intracellular calcium. Since Cacna2d1 modulates IOP, pregabalin, a gabapentinoid drug with high specificity for CACNA2D1, was evaluated for its ability to affect IOP. […] The 1.2% pregabalin eye drops extended the duration of the IOP-lowering effect of pregabalin above that obtained with 0.6% pregabalin. Because there was no significant difference in the percent reduction of IOP between 0.9 and 1.2% pregabalin, we selected 0.9% as the minimal concentration required to produce the maximum reduction in IOP. Expanding this analysis to an additional species, we observed a similar IOP-lowering response (22.1±2.8%) in Dutch belted rabbits after instillation of 0.9% pregabalin eye drops (FIG. 5).

IOP [3] = test: IOP lowering by pregabalin HPMC eye drops in rabbits; assay type: in vivo; conditions: 0.9% pregabalin in HPMC eye drops, Dutch belted rabbits
From the text: FIG. 5: Pregabalin (0.9%) suspended in hydroxypropyl methylcellulose (HPMC) lowers IOP by 23% in Dutch belted rabbits (n=5).
as §1

[4] = cited from earlier work

Compound | area under the curve (IOP [1]) | maximum IOP reduction (IOP [1]) | IOP-lowering effect compared to control (IOP [2]; drops containing 0.3% pregabalin suspended in HPMC, topical, B6 mice) | IOP reduction, dose dependence (IOP [2]; pregabalin 0.3-1.2% suspended in HPMC, eye drops, mice) | minimal concentration required to produce the maximum reduction in IOP (IOP [2]; pregabalin in HPMC eye drops, B6 mice, plateau, no significant difference 0.9 vs 1.2%) | IOP-lowering response (IOP reduction) (IOP [3]) | IOP-lowering response (IOP reduction) (IOP [3]; listed as pregabalin) | time at which IOP returned to baseline (IOP [1]) | solubility in water [4]
NC(C(=O)O)c1ccccc1 (stereo not shown) [2-phenylglycine] | −14 % hr | −8% | – | – | – | – | – | – | –
CC(C)C[C@H](CN)CC(=O)O [Pregabalin, pregabalin] | 65 % hr | 17.3% | no IOP-lowering effect | dose-dependent manner | 0.9% | 23% | 22.1±2.8% | ≤ 6 h | –
NC(=O)c1ncn([C@@H]2O[C@H](CO)[C@@H](O)[C@H]2O)n1 [Ribavirin, 113-D-ribofuranosyl-1H-1,2,4-triazole-3-carboxamide] | – | – | – | – | – | – | – | – | freely soluble in water
NCC1(CC(=O)O)CCCCC1 [gabapentin] | −14 % hr | −8% | – | – | – | – | – | – | –
